# From the NIST ThermoML archive (doi:10.1016/j.jct.2012.03.020)
# Numbers after ± are expanded uncertainties.
# Tests used:
# [1] = for mass density: 101.33 kPa, Liquid, Pycnometric method; for Normal melting temperature: Crystal, visual observation
# [2] = refractive index (Na D-line) (dimensionless); settings: 101.33 kPa, Liquid, Standard Abbe refractometry
mass density ([1]; 298.15 K),mass density ([1]; 303.15 K),mass density ([1]; 308.15 K),mass density ([1]; 313.15 K),Normal melting temperature [1],refractive index ([2]; 298.15 K),refractive index ([2]; 303.15 K),refractive index ([2]; 308.15 K),refractive index ([2]; 313.15 K),Structure (SMILES)
1437 ± 0.9 kg/m3,1433.5 ± 0.9 kg/m3,1430.2 ± 0.9 kg/m3,1428.5 ± 0.9 kg/m3,117.00 ± 2 °C,1.4371 ± 0.0004,1.4336 ± 0.0004,1.4302 ± 0.0004,1.4286 ± 0.0004,Cc1ccc(C(=O)N(O)c2ccccc2)cc1[N+](=O)[O-] [N-hydroxy-4-methyl-3-nitro-N-phenylbenzamide]
,,,,168.00 ± 2 °C,,,,,O=C(c1ccc([N+](=O)[O-])cc1)N(O)c1ccccc1 [N-hydroxy-4-nitro-N-phenylbenzamide]
945.8 ± 0.6 kg/m3,940.4 ± 0.6 kg/m3,936.3 ± 0.6 kg/m3,931.2 ± 0.6 kg/m3,121.00 ± 2 °C,1.4269 ± 0.0004,1.4257 ± 0.0004,1.4241 ± 0.0004,1.4221 ± 0.0004,O=C(c1ccccc1)N(O)c1ccccc1 [N-phenylbenzohydroxamic acid]
945.2 ± 0.9 kg/m3,939.7 ± 0.8 kg/m3,935.6 ± 0.8 kg/m3,930.2 ± 0.9 kg/m3,,1.427 ± 0.0004,1.4253 ± 0.0004,1.423 ± 0.0004,1.421 ± 0.0004,CN(C)C=O [dimethylformamide]
